Source: patent US7026270B2, “Biocidal compounds and their preparation” (Syngenta Crop Protection, Inc., priority 2002, dated 2006)

Key:
Assay type in all cases: in vivo
[1] = test system: Puccinia triticina (PUCCRT); assay: Foliar fungicidal test on wheat, 1 day protectant, Puccinia triticina; details: 100 ppm foliar spray on wheat; inoculated one day after chemical application; banded assessment
Method: (§1) This Example illustrates the fungicidal properties of the compounds of formula (I). The compounds were tested against a variety of foliar fungal diseases of plants. The technique employed was as follows. Plants were grown on an artificial, cellulose based growing medium. The test compounds were individually diluted in reverse osmosis water to a final concentration of 100 ppm in water (that is, 1 mg of compound in a final volume of 10 ml) immediately before use. TWEEN 20 (at a final concentration of 0.05% by volume) was added with the water to improve retention of the spray deposit. TWEEN is a registered trade mark. The compounds were applied to the foliage of the test plants by spraying the plant to maximum droplet retention. […] After chemical application and inoculation, the plants were incubated under high humidity conditions (except those inoculated with Blumeria graminis f.sp. tritici) and then put into an appropriate environment to allow infection to proceed until the disease was ready for assessment. […] However, each individual disease was assessed after the same time period for all compounds. […] The disease level present (the percentage leaf area covered by actively sporulating disease) was assessed visually. For each treatment, the assessed values for all its replicates were meaned to provide mean disease values. Untreated control plants were assessed in the same manner. […]

[2] = test system: Stagonospora Nodorum (LEPTNO); assay: Foliar fungicidal test on wheat, 1 day protectant, Stagonospora Nodorum; details: 100 ppm foliar spray on wheat; inoculated one day after chemical application; banded assessment
Method: as §1

[3] = test system: Blumeria graminis f.sp. tritici (ERYSGT); assay: Foliar fungicidal test on wheat, 6 hour protectant, Blumeria graminis f.sp. tritici; details: 100 ppm foliar spray on wheat; inoculated 6 hours after chemical application; banded assessment
Method: as §1

| SMILES | PRCO (Percentage Disease Reduction from Control) PUCCRT 1 day Protectant [1] | PRCO (Percentage Disease Reduction from Control) LEPTNO 1 day Protectant [2] | PRCO (Percentage Disease Reduction from Control) ERYSGT 6 hour Protectant [3] |
| --- | --- | --- | --- |
| CO[C@@H]1CO[C@H]2[C@@H](O)[C@H](c3c[nH]c(=O)[nH]c3=O)O[C@@H]2[C@@H]1NC(N)=O (stereo in doubt) [(II), Malayamycin A] | 100 | 100 | 100 |
| NC(=O)N[C@H]1[C@H]2O[C@@H](c3c[nH]c(=O)[nH]c3=O)[C@H](O)[C@@H]2OC[C@H]1O (stereo in doubt) [(III), Desmethylmalayamycin A] | 100 | 99 | 0 |
